Laboratory results reported in ChEMBL document CHEMBL1142754, “Lp-PLA2 inhibitory activities of fatty acid glycerols isolated from Saururus chinensis roots” (Bioorg Med Chem Lett, 2005).

Test: Inhibitory concentration against lipoprotein-associated phospholipase A2 (Lp-PLA2) was determined in Pseudomonas fluorescens (DMS 115797)

SMILES | IC50
CCCCC/C=C\C/C=C\CCCCCCCC(=O)OC[C@@H](O)CO [GLYCERYL MONOLINOLEATE] | 4.5 µM
CCCCC/C=C\C/C=C\CCCCCCCC(=O)OC[C@H](O)CO | 52 µM
